Results: patent US7423010B2, “Nonporous microparticle-prodrug conjugates for treatment of infection” (Oregon Health & Science University, priority 1994, dated 2008)

Tested on: murine NIH 3T3 cells
Assay: Growth inhibitory effects of prodrugs on NIH 3T3 cells in culture, with or without esterase-containing brain homogenate
Assay type: cell-based
Procedure: The antifolate drug methotrexate was conjugated with a variety of polar lipid carriers via specific linker moieties having specific reactive functional groups. […] The compounds were tested for their growth inhibitory effects on murine NIH 3T3 cells growing in cell culture. […] […] In a second set of experiments was included in the growth media an amount of a brain homogenate containing an enzymatically-active esterase.

CN(Cc1cnc2nc(N)nc(N)c2n1)c1ccc(C(=O)N[C@@H](CCC(=O)O)C(=O)O)cc1 [Mtx, methotrexate]
# cells/plate (drug/FBS, cells incubated 1 hour at 37° C., cell growth and survival determined 70 hours after drug addition): 0.16 × 10^6 cells/plate
# cells/plate (drug/FBS, cells incubated 2 hours at 37° C., cell growth and survival determined 72 hours after drug addition): 0.13 × 10^6 cells/plate
# cells/plate (drug/brain extract, cells incubated 1 hour at 37° C., cell growth and survival determined 70 hours after drug addition): 0.09 × 10^6 cells/plate
# cells/plate (drug/brain extract, cells incubated 2 hours at 37° C., cell growth and survival determined 72 hours after drug addition): 0.06 × 10^6 cells/plate
